# Measured values published in US8192962B2, “Processes for detecting toxic substances” (Daikin Industries, Ltd., priority 2001, dated 2012).
# Test system: Genes belonging to other category
# Assay: DNA chip mRNA expression in yeast, genes belonging to other category (Table 9)
# Type: cell-based, Saccharomyces cerevisiae S288C
# Method in brief: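 Expression change after 2 h toxicant exposure (growth-inhibiting, sub-lethal) of log-phase S. cerevisiae S288C at 25° C. Oligo-dT-purified mRNA was labeled with Cy3-dUTP or Cy5-dUTP and hybridized >12 h at 65° C. to a genome-wide chip; ratio of scanned fluorescence to control.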
smiles,measurement,setting,value
"N#Cc1c(Cl)c(Cl)c(Cl)c(C#N)c1Cl [(9), 2,4,5,6-tetrachloro-1,3-benzenedicarbonitrile]",The level of expressed mRNA in the presence of chemical substance/The level of expressed mRNA in the absence of chemical substance,yeast gene YAL055W,1.0
same,The level of expressed mRNA in the presence of chemical substance/The level of expressed mRNA in the absence of chemical substance,yeast gene YAR010C,1.2
same,The level of expressed mRNA in the presence of chemical substance/The level of expressed mRNA in the absence of chemical substance,yeast gene YBL005W-A,0.8
same,The level of expressed mRNA in the presence of chemical substance/The level of expressed mRNA in the absence of chemical substance,yeast gene YBL041W,2.8
same,The level of expressed mRNA in the presence of chemical substance/The level of expressed mRNA in the absence of chemical substance,yeast gene YBL043W,0.5
same,The level of expressed mRNA in the presence of chemical substance/The level of expressed mRNA in the absence of chemical substance,yeast gene YBL078C,12.3
same,The level of expressed mRNA in the presence of chemical substance/The level of expressed mRNA in the absence of chemical substance,yeast gene YBL102W,2.3
same,The level of expressed mRNA in the presence of chemical substance/The level of expressed mRNA in the absence of chemical substance,yeast gene YBR046C,4.6
same,The level of expressed mRNA in the presence of chemical substance/The level of expressed mRNA in the absence of chemical substance,yeast gene YBR139W,2.3
same,The level of expressed mRNA in the presence of chemical substance/The level of expressed mRNA in the absence of chemical substance,yeast gene YBR177C,2.1
same,The level of expressed mRNA in the presence of chemical substance/The level of expressed mRNA in the absence of chemical substance,yeast gene YBR212W,2.7
same,The level of expressed mRNA in the presence of chemical substance/The level of expressed mRNA in the absence of chemical substance,yeast gene YBR214W,2.2
same,The level of expressed mRNA in the presence of chemical substance/The level of expressed mRNA in the absence of chemical substance,yeast gene YCL020W,0.9
same,The level of expressed mRNA in the presence of chemical substance/The level of expressed mRNA in the absence of chemical substance,yeast gene YCL027W,0.7
same,The level of expressed mRNA in the presence of chemical substance/The level of expressed mRNA in the absence of chemical substance,yeast gene YCL033C,2.3
same,The level of expressed mRNA in the presence of chemical substance/The level of expressed mRNA in the absence of chemical substance,yeast gene YCL067C,1.4
same,The level of expressed mRNA in the presence of chemical substance/The level of expressed mRNA in the absence of chemical substance,yeast gene YCR004C,4.7
same,The level of expressed mRNA in the presence of chemical substance/The level of expressed mRNA in the absence of chemical substance,yeast gene YCR062W,0.7
same,The level of expressed mRNA in the presence of chemical substance/The level of expressed mRNA in the absence of chemical substance,yeast gene YCR071C,0.6
same,The level of expressed mRNA in the presence of chemical substance/The level of expressed mRNA in the absence of chemical substance,yeast gene YCR088W,0.8
same,The level of expressed mRNA in the presence of chemical substance/The level of expressed mRNA in the absence of chemical substance,yeast gene YDL007W,3.8
same,The level of expressed mRNA in the presence of chemical substance/The level of expressed mRNA in the absence of chemical substance,yeast gene YDL008W,2.3
same,The level of expressed mRNA in the presence of chemical substance/The level of expressed mRNA in the absence of chemical substance,yeast gene YDL018C,1.0
same,The level of expressed mRNA in the presence of chemical substance/The level of expressed mRNA in the absence of chemical substance,yeast gene YDL065C,2.4
same,The level of expressed mRNA in the presence of chemical substance/The level of expressed mRNA in the absence of chemical substance,yeast gene YDL197C,2.6
same,The level of expressed mRNA in the presence of chemical substance/The level of expressed mRNA in the absence of chemical substance,yeast gene YDL229W,1.4
same,The level of expressed mRNA in the presence of chemical substance/The level of expressed mRNA in the absence of chemical substance,yeast gene YDL230W,2.6
same,The level of expressed mRNA in the presence of chemical substance/The level of expressed mRNA in the absence of chemical substance,yeast gene YDL238C,1.7
same,The level of expressed mRNA in the presence of chemical substance/The level of expressed mRNA in the absence of chemical substance,yeast gene YDR055W,0.8
same,The level of expressed mRNA in the presence of chemical substance/The level of expressed mRNA in the absence of chemical substance,yeast gene YDR084C,0.6
same,The level of expressed mRNA in the presence of chemical substance/The level of expressed mRNA in the absence of chemical substance,yeast gene YDR085C,0.4
same,The level of expressed mRNA in the presence of chemical substance/The level of expressed mRNA in the absence of chemical substance,yeast gene YDR099W,2.4
same,The level of expressed mRNA in the presence of chemical substance/The level of expressed mRNA in the absence of chemical substance,yeast gene YDR104C,2.8
same,The level of expressed mRNA in the presence of chemical substance/The level of expressed mRNA in the absence of chemical substance,yeast gene YDR115W,1.1
same,The level of expressed mRNA in the presence of chemical substance/The level of expressed mRNA in the absence of chemical substance,yeast gene YDR125C,0.7
same,The level of expressed mRNA in the presence of chemical substance/The level of expressed mRNA in the absence of chemical substance,yeast gene YDR188W,2.9
same,The level of expressed mRNA in the presence of chemical substance/The level of expressed mRNA in the absence of chemical substance,yeast gene YDR257C,3.0
same,The level of expressed mRNA in the presence of chemical substance/The level of expressed mRNA in the absence of chemical substance,yeast gene YDR259C,1.0
same,The level of expressed mRNA in the presence of chemical substance/The level of expressed mRNA in the absence of chemical substance,yeast gene YDR315C,1.1
same,The level of expressed mRNA in the presence of chemical substance/The level of expressed mRNA in the absence of chemical substance,yeast gene YDR358W,2.9
same,The level of expressed mRNA in the presence of chemical substance/The level of expressed mRNA in the absence of chemical substance,yeast gene YDR388W,1.4
same,The level of expressed mRNA in the presence of chemical substance/The level of expressed mRNA in the absence of chemical substance,yeast gene YDR427W,2.3
same,The level of expressed mRNA in the presence of chemical substance/The level of expressed mRNA in the absence of chemical substance,yeast gene YDR432W,0.7
same,The level of expressed mRNA in the presence of chemical substance/The level of expressed mRNA in the absence of chemical substance,yeast gene YDR481C,1.9
same,The level of expressed mRNA in the presence of chemical substance/The level of expressed mRNA in the absence of chemical substance,yeast gene YDR506C,1.9
same,The level of expressed mRNA in the presence of chemical substance/The level of expressed mRNA in the absence of chemical substance,yeast gene YDR510W,2.7
same,The level of expressed mRNA in the presence of chemical substance/The level of expressed mRNA in the absence of chemical substance,yeast gene YDR515W,5.8
same,The level of expressed mRNA in the presence of chemical substance/The level of expressed mRNA in the absence of chemical substance,yeast gene YEL042W,0.2
same,The level of expressed mRNA in the presence of chemical substance/The level of expressed mRNA in the absence of chemical substance,yeast gene YEL052W,3.0
same,The level of expressed mRNA in the presence of chemical substance/The level of expressed mRNA in the absence of chemical substance,yeast gene YEL066W,1.3
